Test results taken from patent US20070059785A1, “Biomarkers in cancer” (SMITHKLINE BEECHAM CORPORATION, priority 2003, published 2007).

What was measured:
AKT [1] = experiment: Western blot of p-AKT in HN5 cells; format: cell-based, human; settings: HN5, 5 μM, 24 h serum-free
Experimental: (§1) The erbB2 overexpressing human breast adenocarcinoma cell line, BT474, was obtained from the American Type Culture Collection (Rockville, M, USA). […] The EGFR overexpressing LICR-LON-HN5 head and neck carcinoma cell line, HN5, was kindly provided by Helmout Modjtahedi at the Institute of Cancer Research, Surrey, U.K.
(§2) For IP Western blots, equivalent amounts of protein were precleared with Protein G Plus/Protein A agarose overnight at 4° C. Precleared lysates were then incubated overnight at 4° C. with specific antibodies. Immune complexes were precipitated with Protein G Plus/Protein A agarose beads, washed in RIPA buffer and then boiled in sample loading buffer. Steady state levels of total Erk1/2 and activated Erk1/2 (p-Erk) as well as total AKT protein and activated AKT (p-AKT) protein were assessed by Western blot. […] Proteins were transferred to Immobilon-P or nitrocellulose membranes. Efficiency and equal loading of proteins was evaluated by Ponceau S staining. Membranes were blocked for 1 hr in TBS (25 mM Tris-HCl, pH 7.4, 150 mM NaCl, 2.7 mM KCl) containing 4% (w/v) lowfat milk or 3% BSA (w/v). Membranes were then probed with specific antibodies recognizing target proteins. Proteins were visualized with the SUPERSIGNAL® West Femto Maximum sensitivity substrate kit (Pierce).

solid tumors = experiment: Open-label clinical study, clinical response (RECIST); format: in vivo, human
Erk1/2 = experiment: HN5 tumor xenograft, p-Erk1/2 and total Erk1/2 by Western blot; format: in vivo, CD-1 nude mice
Experimental: (§3) Total Erk1/2, total AKT, activated Erk1/2 (p-Erk1/2), and activated AKT (p-AKT) were assessed by Western blot loading equal amounts of protein from tumor biopsies.
HN5 cells were grown in DMEM supplemented with 10% fetal bovine serum, sodium pyruvate and L-glutamine at 37° C. in a 95/5% air/CO2 atmosphere. […] Cells (2×10^6/mouse) in 0.2 ml were injected into the right flank of CD-1 nude mice. Female CD-1 nude mice were acquired from Charles River Laboratories. Mice were maintained in filter-topped cages in an aseptic environment with laminar flow filtered ventilation. […] Tumors were biopsied pre-treatment and 4 hours after the last dose. All animal surgery was conducted under aseptic conditions. For the initial biopsy, mice were anesthetized with isofluorane inhalation. The skin over the tumor was disinfected with iodine. A small hemostat was used to tease away the skin from the tumor, and scissors were used to make a 1 cm incision over the tumor. A scalpel and forceps were used to remove approximately 100 mg of tumor. The tumor was then frozen in liquid nitrogen. Wound clips were used to close the incision. The anesthetized mice were kept warm until they recovered mobility, usually less than 1-2 minutes. For the terminal biopsy, mice were euthanized with CO2 inhalation, and the remainder of the tumor excised. HN5 tumors were placed on dry ice in vials containing cold isopentane, and stored at −80 C prior to study. BT474 tumor samples were fixed for 2-3 hours in phosphatase inhibitor consisting of sodium fluoride and sodium pervanadate in 10% neutral buffered formalin. Following fixative treatment, BT474 samples were washed in water and stored in 70% ethanol prior to study. Cell extracts were prepared by homogenization in RIPA buffer at 4° C.
as §3

erbB2 = erbB2 (Homo sapiens, UniProt P04626); experiment: IP Western blot of activated erbB2 (p-Tyr/erbB2) in S1 cells; format: cell-based; parameters: endogenous in cells; settings: 72 h
Sequence of erbB2 (P04626 23-1255): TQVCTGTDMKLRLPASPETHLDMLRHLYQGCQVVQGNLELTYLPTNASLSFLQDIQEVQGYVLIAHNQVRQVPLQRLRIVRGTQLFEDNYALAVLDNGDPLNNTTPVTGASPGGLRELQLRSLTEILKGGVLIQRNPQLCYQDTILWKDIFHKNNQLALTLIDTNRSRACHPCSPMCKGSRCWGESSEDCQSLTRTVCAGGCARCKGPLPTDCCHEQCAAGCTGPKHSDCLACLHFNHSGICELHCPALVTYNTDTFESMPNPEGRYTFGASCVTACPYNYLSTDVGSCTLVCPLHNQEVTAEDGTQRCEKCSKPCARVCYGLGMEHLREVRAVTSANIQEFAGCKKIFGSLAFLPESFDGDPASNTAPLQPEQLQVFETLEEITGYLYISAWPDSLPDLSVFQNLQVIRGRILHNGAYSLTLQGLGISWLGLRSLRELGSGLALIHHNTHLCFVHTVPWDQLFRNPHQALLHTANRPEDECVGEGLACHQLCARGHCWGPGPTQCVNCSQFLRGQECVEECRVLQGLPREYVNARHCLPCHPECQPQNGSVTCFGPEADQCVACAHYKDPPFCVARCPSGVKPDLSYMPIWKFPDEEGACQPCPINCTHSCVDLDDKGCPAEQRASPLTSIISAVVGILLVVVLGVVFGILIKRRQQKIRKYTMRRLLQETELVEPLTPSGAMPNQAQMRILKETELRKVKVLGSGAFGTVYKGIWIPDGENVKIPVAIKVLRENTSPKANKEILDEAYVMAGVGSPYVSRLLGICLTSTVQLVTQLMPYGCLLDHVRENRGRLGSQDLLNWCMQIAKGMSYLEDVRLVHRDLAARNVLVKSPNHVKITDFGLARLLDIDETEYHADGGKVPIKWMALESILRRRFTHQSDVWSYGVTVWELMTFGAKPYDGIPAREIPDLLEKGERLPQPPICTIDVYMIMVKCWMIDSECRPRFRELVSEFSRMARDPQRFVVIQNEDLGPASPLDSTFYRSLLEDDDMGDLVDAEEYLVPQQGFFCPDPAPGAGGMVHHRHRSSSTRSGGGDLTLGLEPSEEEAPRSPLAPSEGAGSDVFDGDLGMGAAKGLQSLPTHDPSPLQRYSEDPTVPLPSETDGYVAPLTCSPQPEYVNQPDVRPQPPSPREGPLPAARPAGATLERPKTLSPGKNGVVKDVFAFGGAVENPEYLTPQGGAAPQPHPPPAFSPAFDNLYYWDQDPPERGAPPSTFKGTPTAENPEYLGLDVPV
Experimental: as §1, with “FIG. 1. […] The erbB2” for “The erbB2”
Cell cultures were maintained in a humidified atmosphere of 5% CO2 at 37° C.
Protein concentrations were determined using a modification of the Bradford method (Bio-Rad Laboratory).
as §2, with “Proteins were visualized with the SUPERSIGNAL® West Femto Maximum sensitivity substrate kit (Pierce).” left out

AKT [2] = experiment: Western blot of p-AKT in BT474 cells; format: cell-based, human; settings: BT474, 1 μM, 24 h serum-free; not reversed by EGF
Experimental: as §1, §2
BT474 is an erbB2 overexpressing breast carcinoma line that also expresses EGFR, albeit at lower levels. […]

p-ERK = experiment: Antibody staining of p-ERK localization in MCF7/erbB2 cells; format: cell-based, human; settings: 10 uM, results not shown
[3] = patients with >70% decrease in pERK index

SMILES: CS(=O)(=O)CCNCc1ccc(-c2ccc3ncnc(Nc4ccc(OCc5cccc(F)c5)c(Cl)c4)c3c2)o1 [GW572016, N-{3-Chloro-4-[(3-fluorobenzyl)oxy]phenyl}-6-[5-({[2-(methylsulfonyl)ethyl]amino}methyl)-2-furyl]-4-quinazolinamine]
- p-AKT (AKT [1]): inhibited p-AKT in HN5 cells, the effect was smaller than in erbB2-overexpressing tumor cells
- metastatic subcutaneous nodules (solid tumors; patient 361, metastatic breast cancer, 1200 mg/day, Day 21): almost all of their metastatic subcutaneous nodules had completely regressed
- metastatic lymph node that was sequentially biopsied (solid tumors; patient 364, 1600 mg/day, Day 21): reduced in size
- sensitivity of the patient's tumor to treatment (solid tumors; patient 425, inflammatory breast cancer, 1200 mg once per day): very sensitive
- Partial Response at eight weeks (solid tumors; [3]): Partial Response: 2/5
- Progression at eight weeks (solid tumors; [3]): one and Progression: 1/5
- Stable Disease at eight weeks (solid tumors; [3]): Stable Disease: 2/5
- Partial Response at eight weeks (solid tumors; patients with no decrease or increase in pERK index): Partial Response: 0/3
- effect on p-Erk1/2 (Erk1/2; 10 mg/kg, data not shown): little effect
- p-Erk1/2 in tumors (Erk1/2; 30 mg/kg/dose): inhibited
- total steady state Erk1/2 protein levels (Erk1/2; 30 mg/kg/dose): without affecting
- inhibition of erbB2 tyrosine phosphorylation (p-Tyr/erbB2) (erbB2; 500 nM): Partial inhibition
- inhibition of erbB2 tyrosine phosphorylation (p-Tyr/erbB2) (erbB2; 2.5 μM): complete inhibition
- p-AKT (AKT [2]): completely inhibited
- intensity of staining for p-ERK in the nucleus vs control cells (p-ERK): less
